Results as given in US20170128390A1, “DISINFECTANT AND ANTIMICROBIAL COMPOSITIONS, IN PARTICULAR FOR THE VETERINARY FIELD” (I.C.F. S.R.L., priority 2014, published 2017).

Tests used:
[1] = system: Pseudomonas aeruginosa ATCC 27853; experiment: Time-killing assay (bactericidal activity of new formulations), CFU count; assay type: cell-based; settings: CLX 0.000106%, AMP 2041 0.5 μg/ml, TRIS-EDTA 0.1% alone or 0.476%-0.126% in triple combination; for Δ (change of CFU count) at T0 / CFU count at T0: T0 = 0 min; for CFU count at T0 / CFU count at T0.5 / CFU count at T1 / CFU count at T3 / CFU count at T5 / CFU count at T10: CC 600; for Δ (change of CFU count) at T0.5 / CFU count at T0.5: T0.5 = 0.5 min; for Δ (change of CFU count) at T1 / CFU count at T1: T1 = 1 min; for Δ (change of CFU count) at T3 / CFU count at T3: T3 (footnote: T2.5 = 2.5 min); for Δ (change of CFU count) at T5 / CFU count at T5: T5 = 5 min; for Δ (change of CFU count) at T10 / CFU count at T10: T10 = 10 min
Procedure: The tubes are vortexed and incubated at 37° C. with stirring at 225 rpm for 3-4 hours, until achieving a required degree of turbidity, greater than or equal to 0.5 of the Mc Farland scale. Thereafter, the bacterial suspension is centrifuged at 1000 rpm for 20 minutes. The resulting pellet of bacteria is resuspended in 10mM PB. The turbidity is adjusted with the same buffer solution and checked by measuring the absorbance of the suspension at the spectrophotometer. The absorbance is considered equal to 0.5 of the Mc Farland scale when the optical density at 600 nm is between 0:08-0:13. At this value, the bacterial suspension contains approximately 10^8UFC/ml. Two hundred microliters of the assessed and adjusted bacterial suspension are added to 19.8 ml of 10 mM PB to obtain a final dilution of 1:100. Then, within a thirty minutes, 0:05 ml of this suspension (10^6UFC/ml) are inoculated into each well of an ELISA plate to obtain a final concentration of bacteria of about 5×10^5UFC/ml. […] Thereafter, each sample is serially diluted in PBS (pH 7.4) and 50 μl are plated on LB agar and the plates incubated at 37° C. for 24 hours for the count of CFU. The sterility control (100 μl PBS in place of the bacterial suspension) and the control in the absence of the new formulation are set up. The test is also carried out in the presence of 0.3% and 3.0% (w/v) BSA to simulate a paraphysiological environment. All experiments were repeated in triplicate.

[2] = system: Staphylococcus aureus ATCC 25923; experiment: as above; assay type: cell-based; settings: CLX 0.000106%, AMP 2041 0.5 μg/ml; for Δ (change of CFU count) at T0 / CFU count at T0: T0 = 0 min; for CFU count at T0 / CFU count at T0.5 / CFU count at T1 / CFU count at T3 / CFU count at T5 / CFU count at T10: CC 600; for Δ (change of CFU count) at T0.5 / CFU count at T0.5: T0.5 = 0.5 min; for Δ (change of CFU count) at T1 / CFU count at T1: T1 = 1 min; for Δ (change of CFU count) at T3 / CFU count at T3: T3 (footnote: T2.5 = 2.5 min); for Δ (change of CFU count) at T5 / CFU count at T5: T5 = 5 min; for Δ (change of CFU count) at T10 / CFU count at T10: T10 = 10 min
Procedure: For each strain of reference, three to five morphologically similar colonies are selected from blood agar plates and inoculated into tubes containing 6 ml of Brain Heart Infusion broth (DIFCO, USA).
The tubes are vortexed and incubated at 37° C. with stirring at 225 rpm for 3-4 hours, until achieving a required degree of turbidity, greater than or equal to 0.5 of the Mc Farland scale.
Thereafter, the bacterial suspension is centrifuged at 1000 rpm for 20 minutes. The resulting pellet of bacteria is resuspended in 10mM PB. The turbidity is adjusted with the same buffer solution and checked by measuring the absorbance of the suspension at the spectrophotometer. The absorbance is considered equal to 0.5 of the Mc Farland scale when the optical density at 600 nm is between 0:08-0:13. At this value, the bacterial suspension contains approximately 10^8UFC/ml. Two hundred microliters of the assessed and adjusted bacterial suspension are added to 19.8 ml of 10 mM PB to obtain a final dilution of 1:100. Then, within a thirty minutes, 0:05 ml of this suspension (10^6UFC/ml) are inoculated into each well of an ELISA plate to obtain a final concentration of bacteria of about 5×10^5UFC/ml.
The time-killing assay was carried out to evaluate the bactericidal effects of the new formulations, using a modified quantitative test of the European standards EN1040 and EN1276. 100 μl of the bacterial suspension are added to 900 μl of the new formulation and aliquots of 50 μl of the mixture are subjected to assay at 0.5, 1, 2.5, 5, 10, 20, 30, 60, 90 and 120 min., respectively. 450 μl of neutralizing solution are added to each sample and left to act at room temperature for 3 minutes. Thereafter, each sample is serially diluted in PBS (pH 7.4) and 50 μl are plated on LB agar and the plates incubated at 37° C. for 24 hours for the count of CFU. The sterility control (100 μl PBS in place of the bacterial suspension) and the control in the absence of the new formulation are set up. The test is also carried out in the presence of 0.3% and 3.0% (w/v) BSA to simulate a paraphysiological environment. All experiments were repeated in triplicate.

Compound	Δ (change of CFU count) at T0 [1]	CFU count at T0 [1]	Δ (change of CFU count) at T0.5 [1]	CFU count at T0.5 [1]	Δ (change of CFU count) at T1 [1]	CFU count at T1 [1]	Δ (change of CFU count) at T3 [1]	CFU count at T3 [1]	Δ (change of CFU count) at T5 [1]	CFU count at T5 [1]	Δ (change of CFU count) at T10 [1]	CFU count at T10 [1]	Δ (change of CFU count) at T0 [2]	CFU count at T0 [2]	Δ (change of CFU count) at T0.5 [2]	CFU count at T0.5 [2]	Δ (change of CFU count) at T1 [2]	CFU count at T1 [2]	Δ (change of CFU count) at T3 [2]	CFU count at T3 [2]	also measured
[H]/N=C(\N/C(=N/[H])NCCCCCCNC(=N)NC(=N)Nc1ccc(Cl)cc1)Nc1ccc(Cl)cc1 [CLX, chlorhexidine]	Δ = 0%	600	Δ = 0%	600	Δ = 0%	600	Δ = 0%	600	Δ = 0%	600	Δ = 0%	600	Δ = 0%	600	Δ = 0%	600	Δ = 0%	600	Δ = 0%	600	Δ (change of CFU count) at T5 [2]: Δ = 0%; CFU count at T5 [2]: 600; Δ (change of CFU count) at T10 [2]: Δ = 0%; CFU count at T10 [2]: 600
AMP 2041: peptide named AMP2041 (SEQ.ID. No.1), synthesized by SelleckChem (HKCAKIKWRGVHVKYCA)	Δ = 0%	600	Δ = 0%	600	Δ = 0%	600	Δ = 0%	600	Δ = 0%	600	Δ = 0%	600	Δ = 0%	600	Δ = 0%	600	Δ = 0%	600	Δ = 0%	600	Δ (change of CFU count) at T5 [2]: Δ = 0%; CFU count at T5 [2]: 600; Δ (change of CFU count) at T10 [2]: Δ = 0%; CFU count at T10 [2]: 600
